Common to all, as to assay: relative viability (nuclei count vs DMSO), 5 days (fraction); higher = more cells survive
Compound in the assay “Venetoclax + Luminespib”: CC1(C)CCC(CN2CCN(c3ccc(C(=O)NS(=O)(=O)c4ccc(NCC5CCOCC5)c([N+](=O)[O-])c4)c(Oc4cnc5[nH]ccc5c4)c3)CC2)=C(c2ccc(Cl)cc2)C1 [Venetoclax] + CCNC(=O)c1noc(-c2cc(C(C)C)c(O)cc2O)c1-c1ccc(CN2CCOCC2)cc1 [Luminespib] (partner 0.01 µM)
The method in brief: (§1)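 The day after seeding in 1536-well plates, lung cancer cell lines were treated by pin tool with a single drug, or with a fixed anchor-drug dose together with five library-drug doses (not always all listed) in √10 steps. After 5 days, a combined fix-and-stain solution (final 0.05% Triton X-100, 1% formaldehyde, 1 ug/ml Hoechst) was added. Nuclei counted on 4× images gave relative viability as treated counts over vehicle counts, reported as the median of duplicate plates.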

Compound in the assay “Selumetinib + Phenformin”: Cn1cnc2c(F)c(Nc3ccc(Br)cc3Cl)c(C(=O)NOCCO)cc21 [Selumetinib] + N=C(N)NC(=N)NCCc1ccccc1 [Phenformin] (partner 250 µM)
The essentials:
as §1

Compound in the assay “Selumetinib + Olaparib”: Cn1cnc2c(F)c(Nc3ccc(Br)cc3Cl)c(C(=O)NOCCO)cc21 [Selumetinib] + O=C(c1cc(Cc2n[nH]c(=O)c3ccccc23)ccc1F)N1CCN(C(=O)C2CC2)CC1 [Olaparib] (partner 8 µM)
The essentials:
as §1

Compound in assay [1]: Cn1cnc2c(F)c(Nc3ccc(Br)cc3Cl)c(C(=O)NOCCO)cc21 [Selumetinib] + CC(=O)c1c(C)c2cnc(Nc3ccc(N4CCNCC4)cn3)nc2n(C2CCCC2)c1=O [Palbociclib] (partner 0.5 µM)
The method in brief:
as §1

One cell line from the supplement of paper PMC10307832 can be followed below.

In the case of UMC-11, the relative viability in the assay with Venetoclax + Luminespib (first compound 0.01 µM) was 1.06; with Venetoclax + Luminespib (first compound 0.03162 µM) it was 0.987; in the assay with Venetoclax + Luminespib (first compound 0.1 µM), 1.04; in the assay with Venetoclax + Luminespib (first compound 0.3162 µM) it was 1.02; with Venetoclax + Luminespib (first compound 1 µM), 0.882; in the assay with Selumetinib + Phenformin (first compound 0.02 µM), 0.301. The relative viability turned out to be 0.284 with Selumetinib + Phenformin (first compound 0.06325 µM); 0.307 with Selumetinib + Phenformin (first compound 0.2 µM); 0.323 with Selumetinib + Phenformin (first compound 0.6325 µM); 0.32 in the assay with Selumetinib + Olaparib (first compound 0.02 µM); 0.33 with Selumetinib + Olaparib (first compound 0.06325 µM); 0.384 in the assay with Selumetinib + Olaparib (first compound 0.2 µM). For the same cell line, the relative viability with Selumetinib + Olaparib (first compound 0.6325 µM) was 0.914; in assay [1] (first compound 0.02 µM), 0.309; in assay [1] (first compound 0.06325 µM), 0.37; in assay [1] (first compound 0.2 µM), 0.306; in assay [1] (first compound 0.6325 µM), 0.34.
